In this assay the test system is Lewis rat with adjuvant (Mycobacterium butyricum) induced arthritis. In kind it is in vivo. As to conditions: distal end of right-and-left thighbone, 21st day after adjuvant, 14th to 20th day.
Setting [1] is: Example 2, celecoxib 1 mg/kg orally every day and/or Preparation 22 3.5 mg/kg intraperitoneally.

Like-named read-outs stand apart in the source and are kept apart here.

For `CC(C(=O)O)c1ccc(CC2CCCC2=O)cc1` (stereo not drawn) [Loxoprofen sodium, loxoprofen sodium], the “Bone density (average ± standard deviation)” value (Example 1, loxoprofen sodium 5 mg/kg orally and/or Preparation 4 0.1 mg/kg intraperitoneally, every day) is listed as 106.5 ± 0.8 mg/cm^2.
For the molecule `Cc1ccc(-c2cc(C(F)(F)F)nn2-c2ccc(S(N)(=O)=O)cc2)cc1` [Celecoxib, celecoxib], under setting [1], the “Bone density (average ± standard deviation)” value came out at 103.0 ± 1.8 mg/cm^2.

B1: Preparation 22: complex of recombinant human OCIF dimer and DS5; DS5 150 mg/ml, OCIF 5 mg/ml, 7° C., pH 10.5, 168 hours (conjugate, UniProt O00300 22-401, looked up)
Tumor necrosis factor …: ETFPPKYLHYDEETSHQLLCDKCPPGTYLKQHCTAKWKTVCAPCPDHYYTDSWHTSDECLYCSPVCKELQYVKQECNRTHNRVCECKEGRYLEIEFCLKHRSCPPGFGVVQAGTPERNTVCKRCPDGFFSNETSSKAPCRKHTNCSVFGLLLTQKGNATHDNICSGNSESTQKCGIDVTLCEEAFFRFAVPTKFTPNWLSVLVDNLPGTKVNAESVERIKRQHSSQEQTFQLLKLWKHQNKDQDIVKKIIQDIDLCENSVQRHIGHANLTFEQLRSLMESLPGKKVGAEDIEKTIKACKPSDQILKLLSLWRIKNGDQDTLKGLMHALKHSKTYHFPKTVTQSLKKTIRFLHSFTMYKLYQKLFLEMIGNQVQSVKISCL
modifications: dimer complexed with DS5
notes: complex of recombinant human OCIF dimer and DS5; DS5 150 mg/ml, OCIF 5 mg/ml, 7° C., pH 10.5, 168 hours
As for B1, under setting [1], the “Bone density (average ± standard deviation)” value stood at 104.2 ± 2.1 mg/cm^2.

Values taken from US20030181418A1, “Pharmaceutical composition” (SANKYO COMPANY, LIMITED, priority 2002, published 2003).
